# From PMC4014701 (Pharmaceuticals, 2014)
# Read-outs that look alike come from different tables or passages of the source.
# Legend:
# P-gp (MDCK-MDR1 cells) [1] = biological target: T1, P-gp (MDCK-MDR1 cells) (Homo sapiens, UniProt P08183); assay: Transepithelial transport across MDCK-MDR1 cells
# Protocol: Samples were stored at −80 °C until further analysis.
# Samples were extracted with liquid–liquid extraction technique.
# [2] = Solubility study in distilled deionized water (DDW); settings: for Solubility, fold higher relative to LPV: DDW; for Solubility in DDW: saturated solution, room temperature, 24 h; for solubility at 24 h: distilled deionized water, water, thermodynamic from solid
# Protocol: Aqueous solubility study of prodrugs was performed according to the published protocol from our laboratory. Saturated solution of each prodrug was prepared in DDW in siliconized tubes. Tubes were placed in shaking water bath at room temperature (RT) for 24 h. Tubes were centrifuged at 10,000 rpm for 10 min to separate undissolved prodrugs. The supernatant was separated, filtered through 0.45 µm membrane (Nalgene syringe filter) and analyzed with HPLC after appropriate dilutions.
# (§1) Aqueous solubility and buffer stability samples were measured with reversed phase HPLC technique. Waters 515 pump (Waters, Milford, MA, USA) connected to a UV detector (Absorbance Detector Model UV-C, RAININ, Dynamax, Palo Alto, CA, USA) was employed. A C(18) Kinetex column (100 × 4.6 mm, 2.6 µ; Phenomenex, Torrance, CA, USA) was pumped with mobile phase (1:1) acetonitrile and water (0.1% trifluoroacetic acid) at a flow rate of 0.3 mL/min. Analytes were detected with UV detection at a wavelength of 210 nm.
# MRP2 (MDCK-MRP2 cells) [3] = biological target: T2, MRP2 (MDCK-MRP2 cells) (Homo sapiens, UniProt Q92887); assay: Transepithelial transport across MDCK-MRP2 cells
# T2 sequence (Q92887 whole entry): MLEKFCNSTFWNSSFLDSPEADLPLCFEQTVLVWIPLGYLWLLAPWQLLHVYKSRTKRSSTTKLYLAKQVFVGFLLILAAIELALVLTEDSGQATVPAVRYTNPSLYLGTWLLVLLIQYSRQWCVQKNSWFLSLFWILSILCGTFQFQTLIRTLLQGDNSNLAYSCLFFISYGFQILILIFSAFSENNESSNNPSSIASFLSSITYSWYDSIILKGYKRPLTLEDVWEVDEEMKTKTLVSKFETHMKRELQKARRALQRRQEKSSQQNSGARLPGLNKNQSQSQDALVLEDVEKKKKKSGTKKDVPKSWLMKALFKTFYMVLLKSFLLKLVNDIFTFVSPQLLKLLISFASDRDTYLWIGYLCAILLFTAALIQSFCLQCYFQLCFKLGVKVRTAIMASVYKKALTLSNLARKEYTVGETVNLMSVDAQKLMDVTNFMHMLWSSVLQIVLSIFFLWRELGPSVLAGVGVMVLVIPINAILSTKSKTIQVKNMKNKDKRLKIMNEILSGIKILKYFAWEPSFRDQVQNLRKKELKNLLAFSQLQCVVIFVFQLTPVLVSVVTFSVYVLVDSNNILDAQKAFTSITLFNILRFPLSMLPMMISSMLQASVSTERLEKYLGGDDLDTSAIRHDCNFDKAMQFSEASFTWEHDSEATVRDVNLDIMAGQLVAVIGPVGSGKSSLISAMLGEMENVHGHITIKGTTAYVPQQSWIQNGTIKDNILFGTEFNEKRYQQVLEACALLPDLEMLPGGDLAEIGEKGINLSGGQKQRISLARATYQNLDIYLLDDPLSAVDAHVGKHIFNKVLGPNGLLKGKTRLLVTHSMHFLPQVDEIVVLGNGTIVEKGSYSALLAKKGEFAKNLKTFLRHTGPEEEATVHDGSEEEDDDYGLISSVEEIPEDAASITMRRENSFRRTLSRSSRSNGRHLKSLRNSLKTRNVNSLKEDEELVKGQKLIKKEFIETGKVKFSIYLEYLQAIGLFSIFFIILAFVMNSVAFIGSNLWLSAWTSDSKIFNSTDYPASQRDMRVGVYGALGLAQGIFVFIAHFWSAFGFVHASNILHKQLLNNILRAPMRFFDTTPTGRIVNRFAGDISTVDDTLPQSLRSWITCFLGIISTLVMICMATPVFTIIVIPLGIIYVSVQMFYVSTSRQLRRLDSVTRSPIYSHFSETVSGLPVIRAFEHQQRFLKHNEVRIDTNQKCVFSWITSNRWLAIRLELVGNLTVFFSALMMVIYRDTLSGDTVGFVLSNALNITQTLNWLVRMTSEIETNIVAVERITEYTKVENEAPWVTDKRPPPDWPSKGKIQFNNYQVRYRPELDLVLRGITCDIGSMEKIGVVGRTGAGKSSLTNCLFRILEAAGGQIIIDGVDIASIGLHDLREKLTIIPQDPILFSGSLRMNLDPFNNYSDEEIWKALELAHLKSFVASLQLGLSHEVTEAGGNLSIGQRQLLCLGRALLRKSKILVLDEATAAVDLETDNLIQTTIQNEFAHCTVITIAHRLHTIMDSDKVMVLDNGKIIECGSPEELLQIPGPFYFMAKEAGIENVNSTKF
# Protocol: Transwell® inserts were coated with type 1 rat tail collagen (100 µg/cm^2). Cells were seeded at a density of 250,000 cells per well. Transport studies were conducted across MDCK-MDR1 and MDCK-MRP2 cells in presence and absence of efflux inhibitors for a period of 3 h at 37 °C. Prior to the initiation of transport study, cell monolayer integrity was evaluated by monitoring transepithelial electric resistance (TEER), with an EVOM (epithelial volt ohmmeter from World Precision Instruments, Sarasota, FL, USA). TEER values of the cell monolayer were approximately 250 Ω*cm^2. Monolayers were washed thoroughly with DBPS (pH7.4) for 15 min at 37 °C, three times. […] At predetermined time points (30, 60, 120 and 180 min), 100 µL sample was withdrawn from the receiving chamber and replaced with fresh DPBS to maintain sink conditions. Samples were stored at −80 °C until further analysis. To determine the effect of efflux inhibitors, cells were treated GF 120918 (MDCK-MDR1) and MK 571 (MDCK-MRP2) prior to initiation of the transport study.
# Samples were extracted with liquid–liquid extraction technique. About, 50 μL of verapamil (200 ng) was added as an internal standard to each sample. Analytes were extracted by vortexing with 800 μL water saturated ethyl acetate for 2.5 min. Following centrifugation at 10,000 rpm for 7 min, approximately 600 µL of ethyl acetate layer was collected and evaporated under reduce pressure for 45 min. The residue was reconstituted in 100 μL of acetonitrile (80%) and water (20%) containing 0.1% formic acid. Ten microliters of reconstituted samples were injected in LCMS/MS. Similarly, standard solutions were extracted from DPBS and quantified with LCMS/MS. […]
# Transepithelial permeability was determined by plotting cumulative amount of analyte transported against time. […]
# Transepithelial permeability was calculated by normalizing the steady-state flux with the donor concentration (Cd) according to Equation (2): Transepithelial permeability = flux/Cd (2)
# [4] = Buffer stability (chemical hydrolysis) in DPBS; settings: for Degradation half life: DPBS; for half-life at 50 µM: DPBS buffer
# Protocol: Chemical hydrolysis study of prodrugs was carried out according to the previously published protocols from our laboratory. Degradation rate constant and half-life (t1/2) of prodrugs were determined at various pH. […] Microcentrifuge tubes were placed in shaking water bath (60 rpm) at 37 °C. Samples (100 µL) were withdrawn at predetermined time points and stored at −80° C until further analysis. Prodrug concentrations remaining were plotted versus time in order to calculate degradation rate constants.
# as §1
# P-gp (MDCK-MDR1 cells) [5] = biological target: T1, P-gp (MDCK-MDR1 cells); assay: Cellular uptake of unlabelled LPV and prodrugs in MDCK-MDR1 cells; assay type: in vitro ADME; parameters: A. Schinkel and P. Borst (Netherlands Cancer Institute); host or cells: MDCK (MDCK-MDR1), retrovirally transfected; settings: 5 µM, 30 min
# Protocol: About 500 µL of DMEM was added to each well and plates were kept in −80 °C overnight for cell lysis.
# [6] = tested on: CYP3A4 (rat liver microsomes); assay: Rat liver microsomal stability; settings: for Half life in liver microsomes, fold higher compared to LPV: time dependent study
# Protocol: (§2) One mL of microsomal solution was generated by adding microsomal protein (0.3 mg/mL), magnesium chloride (5 mM), glucose 6-phosphate (5 mM), b-NADP1 (1 mM), and glucose 6-phosphate dehydrogenase (1 U/mL) in phosphate buffer (100 mM, pH 7.4). […] The metabolic reaction was initiated by adding the NADPH generating system. NADPH generating system was freshly prepared by adding G-6-P, G-6-P DH and NADP in DDW. At predetermined time points, metabolic reaction was arrested by adding equal volumes of ice-cold acetonitrile to the sample. Samples were stored at −80 °C until further analysis by LCMS/MS technique.
# (§3) This study was performed according to the previously published protocols from our laboratory. At predetermined time points, about 100 μL of samples were withdrawn and equal volume of acetonitrile was added to stop the degradation process. Degradation study was conducted for a period of 2 h. Samples were stored at −80 °C until further analysis.
# (§4) Enzymatic degradation was arrested by adding equal amount of acetonitrile and samples were stored in −80 °C until further analysis.
# (§5) Rat liver microsomes were employed at the concentration of 0.3 mg/mL. […] Liver microsomal solution was incubated with ketoconazole for 15 min prior to the initiation of stability study.
# MDCK-WT cells = assay: Cytotoxicity, MTS assay; assay type: cell-based; settings: 4 h incubation; for Reduction in absorbance (positive controls): medium containing 10% DMSO or 0.1% Triton-X
# Protocol: Cytotoxicity of prodrugs was determined in MDCK-WT cells with MTS assay based cytotoxicity kit. Briefly, cells were grown overnight in 96 well plates at a density of 20,000 cells per well prior to drug and prodrug addition. […] Cells were then incubated for 4 h at 37 °C. Following incubation, 20 μL of MTS stock solution was added to each well and incubated for 2 h at 37 °C. […] The quantity of formazan product as measured by absorbance is directly proportional to the number of viable cells in test samples.
# MRP2 (MDCK-MRP2 cells) [7] = biological target: T2, MRP2 (MDCK-MRP2 cells); assay: [3H]-LPV uptake in MDCK-MRP2 cells; assay type: cell-based; parameters: A. Schinkel and P. Borst (Netherlands Cancer Institute); host or cells: MDCKII (MDCKII-MRP2), retrovirally transfected; settings: for [3H]-LPV uptake, fold enhancement in presence of inhibitor: DPBS pH 7.4, 37 °C
# Protocol: (§6) Confluent cells were then trypsinized and plated at a density of 3 × 10^6 cells in 12 well culture plates. Medium was replaced every alternate day until cells reached confluency (6–7 days). Cellular uptake studies were performed on confluent cell monolayers according to previously published protocol from our laboratory. Briefly, medium was removed and cell monolayer was washed with 2 mL of DPBS (130 mM NaCl, 0.03 mM KCl, 7.5 mM Na2HPO4, 1.5 mM KH2PO4, 1 mM CaCl2, 0.5 mM MgSO4, and 5 mM glucose, pH 7.4) three times at 37 °C (each wash of 10 min). […] Following incubation, radioactive solution was quickly removed and plates were washed with ice-cold stop solution (210 mM KCl, 2 mM HEPES, pH of 7.4) to arrest the uptake process. One mL of lysis buffer (0.1% Triton-X solution in 0.3% NaOH) was added to each well and plates were stored overnight at RT. Later, 500 µL solutions were transferred to scintillation vials containing 3 mL of scintillation cocktail. The radioactivity associated with cells was analyzed with a scintillation counter (Beckman Instruments Inc., Model LS-6500; Fullerton, CA, USA). Uptake rate was normalized to protein count which was quantified with a BioRad protein estimation kit.
# (§7) Prior to initiation of uptake studies, cells were treated with efflux inhibitors for a period of 15 min. Uptake study was then initiated according to a procedure described in section 2.2.5.
# P-gp (MDCK-MDR1 cells) [8] = biological target: T1, P-gp (MDCK-MDR1 cells); settings: MDCK-MDR1, DPBS pH 7.4, 37 °C
# Protocol: as §6, §7
# CYP3A4 = assay: Rat liver microsomal stability; settings: Sprague Dawley, rat, pH 7.4
# Protocol: as §2, §3, §4, §5
# T1 sequence (P08183 whole entry): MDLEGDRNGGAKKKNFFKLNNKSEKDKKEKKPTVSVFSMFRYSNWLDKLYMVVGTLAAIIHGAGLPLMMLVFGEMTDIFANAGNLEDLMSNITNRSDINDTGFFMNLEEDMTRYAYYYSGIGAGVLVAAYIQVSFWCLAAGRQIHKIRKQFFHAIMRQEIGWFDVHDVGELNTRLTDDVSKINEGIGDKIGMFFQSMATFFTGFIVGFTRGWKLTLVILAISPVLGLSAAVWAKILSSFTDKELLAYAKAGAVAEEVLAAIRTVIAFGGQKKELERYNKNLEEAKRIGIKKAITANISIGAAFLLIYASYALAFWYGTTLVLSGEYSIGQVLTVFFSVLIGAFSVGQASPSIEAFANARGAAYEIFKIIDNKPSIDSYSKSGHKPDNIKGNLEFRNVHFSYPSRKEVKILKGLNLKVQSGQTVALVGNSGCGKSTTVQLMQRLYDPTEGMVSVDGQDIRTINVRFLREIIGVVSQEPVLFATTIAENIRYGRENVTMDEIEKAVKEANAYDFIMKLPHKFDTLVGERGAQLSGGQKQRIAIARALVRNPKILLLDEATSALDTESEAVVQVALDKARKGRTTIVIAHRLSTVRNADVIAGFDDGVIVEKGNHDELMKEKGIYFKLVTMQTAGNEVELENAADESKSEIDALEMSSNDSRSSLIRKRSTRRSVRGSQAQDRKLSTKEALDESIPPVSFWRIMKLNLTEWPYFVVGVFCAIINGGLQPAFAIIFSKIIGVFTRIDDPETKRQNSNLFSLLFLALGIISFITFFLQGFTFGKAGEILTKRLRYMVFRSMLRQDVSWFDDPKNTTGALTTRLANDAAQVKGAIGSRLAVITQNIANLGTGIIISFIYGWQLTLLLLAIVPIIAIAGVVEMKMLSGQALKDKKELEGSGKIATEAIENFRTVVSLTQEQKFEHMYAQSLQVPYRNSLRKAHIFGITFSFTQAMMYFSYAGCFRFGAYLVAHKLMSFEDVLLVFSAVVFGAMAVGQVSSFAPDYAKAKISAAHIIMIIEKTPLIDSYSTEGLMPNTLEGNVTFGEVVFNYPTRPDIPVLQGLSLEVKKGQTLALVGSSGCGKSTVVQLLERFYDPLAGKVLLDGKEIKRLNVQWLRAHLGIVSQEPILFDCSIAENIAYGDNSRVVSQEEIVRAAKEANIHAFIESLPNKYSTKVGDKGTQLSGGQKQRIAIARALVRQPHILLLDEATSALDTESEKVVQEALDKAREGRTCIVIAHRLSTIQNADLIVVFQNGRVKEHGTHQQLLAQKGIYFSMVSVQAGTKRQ
smiles,measurement,setting,value
"Cc1cccc(C)c1OCC(=O)NC(Cc1ccccc1)C(CC(Cc1ccccc1)NC(=O)C(C(C)C)N1CCCNC1=O)OC(=O)C(N)Cc1c[nH]c2ccccc12 (stereo not shown) [Trp-LPV, tryptophan-LPV]","A-B permeability, fold higher relative to LPV",P-gp (MDCK-MDR1 cells) [1],~1.8 fold
same,"Solubility, fold higher relative to LPV",[2],~7 fold
same,Solubility in DDW,[2],274 ± 11 µg/mL
same,"A-B permeability, fold higher relative to LPV",MRP2 (MDCK-MRP2 cells) [3],~1.7 fold
same,Degradation half life,"[4]; pH 4, 37 °C",123 ± 14 h
same,Degradation half life,"[4]; pH 5.5, 37 °C",50 ± 9 h
same,Degradation half life,"[4]; pH 7.4, 37 °C",5.4 ± 0.3 h
same,"Cellular uptake, fold higher relative to LPV",P-gp (MDCK-MDR1 cells) [5],~1.8 fold
same,Km,"[6]; read-out: Km (affinity constant), 0.5–40 µM, 5 min, microsomes 0.3 mg/mL, Michaelis-Menten fit",~13.2 µM
same,"Half life in liver microsomes, fold higher compared to LPV",[6],1.6 to 1.8 fold
"CSCCC(N)C(=O)OC(CC(Cc1ccccc1)NC(=O)C(C(C)C)N1CCCNC1=O)C(Cc1ccccc1)NC(=O)COc1c(C)cccc1C (stereo not shown) [Met-LPV, methionine-LPV]","A-B permeability, fold higher relative to LPV",P-gp (MDCK-MDR1 cells) [1],~2.3 fold
same,"Solubility, fold higher relative to LPV",[2],~9 fold
same,Solubility in DDW,[2],362 ± 21 µg/mL
same,"A-B permeability, fold higher relative to LPV",MRP2 (MDCK-MRP2 cells) [3],~1.9 fold
same,Degradation half life,"[4]; pH 4, 37 °C",119 ± 6 h
same,Degradation half life,"[4]; pH 5.5, 37 °C",55 ± 6 h
same,Degradation half life,"[4]; pH 7.4, 37 °C",6.2 ± 0.4 h
same,"Cellular uptake, fold higher relative to LPV",P-gp (MDCK-MDR1 cells) [5],~2.4 fold
same,Degradation rate constant in liver microsomal solution,[6],~3.6 ± 0.4 × 10^−^3 min^−^1
same,Intrinsic clearance (Vmax/Km),[6],0.5 mL/min/mg protein
same,Km,[6],~13 µM
same,"Half life in liver microsomes, fold higher compared to LPV",[6],1.6 to 1.8 fold
CC(C)(C)CC(C)(C)c1ccc(OCCO)cc1 [Triton-X],Reduction in absorbance (positive controls),MDCK-WT cells,90%
"Cc1cccc(C)c1OCC(=O)N[C@@H](Cc1ccccc1)[C@@H](O)C[C@H](Cc1ccccc1)NC(=O)[C@H](C(C)C)N1CCCNC1=O [LPV, lopinavir]",solubility at 24 h,[2],40 ± 8 µg/mL
same,Cytotoxicity,MDCK-WT cells; 100 µM,generated cytotoxic effects
same,[3H]-LPV uptake in presence of increasing concentrations of test compound,"MRP2 (MDCK-MRP2 cells) [7]; MDCK-MRP2, DPBS pH 7.4, 37 °C",enhancement of [3H]-LPV uptake
same,[3H]-LPV uptake in presence of increasing concentrations of test compound,P-gp (MDCK-MDR1 cells) [8],elevated significantly
"CCC(C)C(N)C(=O)OC(CC(Cc1ccccc1)NC(=O)C(C(C)C)N1CCCNC1=O)C(Cc1ccccc1)NC(=O)COc1c(C)cccc1C (stereo not shown) [Ile-LPV, isoleucine-LPV]","A-B permeability, fold higher relative to LPV",P-gp (MDCK-MDR1 cells) [1],about 3 fold
same,"Solubility, fold higher relative to LPV",[2],about 15 fold
same,solubility at 24 h,[2],625 ± 27 µg/mL
same,"A-B permeability, fold higher relative to LPV",MRP2 (MDCK-MRP2 cells) [3],about 2.8 fold
same,half-life at 50 µM,[4]; pH 4,101 ± 29 h
same,half-life at 50 µM,[4]; pH 5.5,53 ± 10 h
same,half-life at 50 µM,[4]; pH 7.4,6.4 ± 0.3 h
same,"Cellular uptake, fold higher relative to LPV",P-gp (MDCK-MDR1 cells) [5],about 2.7 fold
same,"Half life in liver microsomes, fold higher compared to LPV",[6],1.6 to 1.8 fold
same,Km at 5 min,CYP3A4,~14.3 µM
CN(C)C(=O)CCSC(SCCC(=O)O)c1cccc(/C=C/c2ccc3ccc(Cl)cc3n2)c1 (stereo not shown) [MK 571],"[3H]-LPV uptake, fold enhancement in presence of inhibitor",MRP2 (MDCK-MRP2 cells) [7]; 25 µM inhibitor,2.5 fold
same,"[3H]-LPV uptake, fold enhancement in presence of inhibitor",MRP2 (MDCK-MRP2 cells) [7]; 75 µM inhibitor,3 fold
C[S+](C)[O-] [DMSO],Reduction in absorbance (positive controls),MDCK-WT cells,30%
